One series deals with T1, 5HT2 receptors (Rattus norvegicus, UniProt P14842).
T1 construct: membrane corresponding to 1 mg of rat cortex; from tissue; host or cells: rat cortex membrane
The experiment in a line: Specific binding to 5HT2 receptors ([3H]ketanserin, rat cortex membrane). To be noted: 0.5 nM [3H]ketanserin, 30 min, 35° C., pH 7.4. As for the experimental part:
(§1) Specific binding to D2, 5HT2 and, 5HT1a receptors was tested as follows:
The amount of receptor-bound radioactivity was retained on the membrane and determined by liquid scintillation counting.
(§2) The biochemical results expressed as IC50 in molar concentrations are presented in Table 1 comparatively to the compound of Patent ES 9400581. A higher affinity of the present compounds to the three receptors is observed.

The next series addresses T2, 5HT1a receptors (Rattus norvegicus, UniProt P19327).
T2 construct: membrane corresponding to 1 mg of rat cortex; from tissue; host or cells: rat cortex membrane
T2 sequence (P19327 1-422): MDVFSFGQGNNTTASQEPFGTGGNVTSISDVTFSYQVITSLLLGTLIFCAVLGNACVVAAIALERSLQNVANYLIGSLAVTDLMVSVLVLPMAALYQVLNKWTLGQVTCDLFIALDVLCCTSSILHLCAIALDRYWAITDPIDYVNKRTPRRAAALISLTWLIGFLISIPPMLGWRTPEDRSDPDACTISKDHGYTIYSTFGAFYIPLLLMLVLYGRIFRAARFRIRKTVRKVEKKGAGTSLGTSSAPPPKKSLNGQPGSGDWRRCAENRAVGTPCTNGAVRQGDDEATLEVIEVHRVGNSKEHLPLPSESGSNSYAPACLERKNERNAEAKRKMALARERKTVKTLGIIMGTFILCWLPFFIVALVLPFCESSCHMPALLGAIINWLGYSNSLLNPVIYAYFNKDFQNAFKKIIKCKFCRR
The experiment in a line: Specific binding to 5HT1a receptors ([3H]5-OH-DPAT, rat cortex membrane). As for the experimental part: as §1
5HT1a receptors: A 1 nM solution of radioactive […], which acts as a specific ligand, was incubated with the membrane corresponding to 1 mg of rat cortex for 20 min at 35° C. buffered at pH 7.4 with Tris.HCl.
Non-specific binding was then determined by addition of a 20 micromolar concentration of unlabelled buspirone. IC50 (inhibitory concentration 50%) was calculated from the inhibition rate of the specific binding obtained by addition of eleven different concentrations of the compounds to be tested. After the incubation was completed, the sample was filtered through a glass fiber filter and then washed three times with Tris.HCl buffer. The amount of receptor-bound radioactivity was retained on the membrane and determined by liquid scintillation counting.
as §2

In another series the target is T3, D2 receptors (Rattus norvegicus, UniProt P61169).
T3 construct: membrane corresponding to 20 mg of rat striatum; from tissue; host or cells: rat striatum membrane
T3 sequence (P61169 whole entry): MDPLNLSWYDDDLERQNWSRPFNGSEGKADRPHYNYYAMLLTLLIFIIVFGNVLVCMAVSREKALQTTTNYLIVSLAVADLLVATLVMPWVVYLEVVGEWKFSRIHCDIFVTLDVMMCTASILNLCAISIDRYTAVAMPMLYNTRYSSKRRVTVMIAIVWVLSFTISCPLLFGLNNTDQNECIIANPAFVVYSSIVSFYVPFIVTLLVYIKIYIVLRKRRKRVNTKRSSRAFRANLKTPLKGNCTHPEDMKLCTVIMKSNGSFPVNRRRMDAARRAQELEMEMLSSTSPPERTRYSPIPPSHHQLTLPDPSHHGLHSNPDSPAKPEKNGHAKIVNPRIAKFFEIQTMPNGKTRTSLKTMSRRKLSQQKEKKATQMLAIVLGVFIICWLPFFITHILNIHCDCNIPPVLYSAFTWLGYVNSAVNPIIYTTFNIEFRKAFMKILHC
Briefly: Specific binding to D2 receptors ([3H]spiperone, rat striatum membrane).

In series [1] the test system is apomorphine-induced climbing behaviour. Briefly: Inhibition test of apomorphine-induced climbing behaviour. The series is classed as in vivo, male Swiss mice. Particulars: Mus musculus, 1 h, read-out: ID50 Climbing.
Protocol: The compounds were compared in Animal Pharmacology by the inhibition test of apomorphine-induced climbing behaviour
For the practical performance of this experiment, male Swiss mice weighing 22-24 g were used. One week prior to experiment, animals were kept in our facilities at a temperature of 20°-22° C. and 12/12 h light-dark cycle, and had free access to food and water. Two hours prior to experiment, the animals were placed in individual cages without access to food.
Animals were administered orally with test drug or 0.25% agar at time 0. After 60 minutes, apomorphine was subcutaneously injected at a dose of 1 mg/kg, and after further 70 minutes the animal's behaviour was assessed. Two additional assessments were performed at 10-min intervals.
For assessment, each animal was placed on the bottom of a small upright box (11×7.5×4.5 cm). The walls of the box were made of translucent methacrylate except one of the lateral surfaces (7.5 cm wide) which was a 3-mm wire mesh. The position of the animal was scored for 2 minutes according to the following criteria: 0=four paws on the floor; 1=three paws on the floor; 2=two paws on the floor; 3=one paw on the floor; and 4=four paws holding the wire mesh. If an animal keeps several positions within the 2-min observation, the seconds elapsed in each position will be recorded. Finally, mean scoring was calculated.
The next series is described as follows: in vivo. Particulars: rat, po.
[2] abbreviates: 1 nM [3H]5-OH-DPAT, rat cortex, 20 min, 35° C., pH 7.4, read-out: IC50 5HT1a.
[3] abbreviates: oral, mice, apomorphine 1 mg/kg s.c. after 60 min.

Where two headings read alike, the source gives them in different places.

T1 sequence (P14842 whole entry): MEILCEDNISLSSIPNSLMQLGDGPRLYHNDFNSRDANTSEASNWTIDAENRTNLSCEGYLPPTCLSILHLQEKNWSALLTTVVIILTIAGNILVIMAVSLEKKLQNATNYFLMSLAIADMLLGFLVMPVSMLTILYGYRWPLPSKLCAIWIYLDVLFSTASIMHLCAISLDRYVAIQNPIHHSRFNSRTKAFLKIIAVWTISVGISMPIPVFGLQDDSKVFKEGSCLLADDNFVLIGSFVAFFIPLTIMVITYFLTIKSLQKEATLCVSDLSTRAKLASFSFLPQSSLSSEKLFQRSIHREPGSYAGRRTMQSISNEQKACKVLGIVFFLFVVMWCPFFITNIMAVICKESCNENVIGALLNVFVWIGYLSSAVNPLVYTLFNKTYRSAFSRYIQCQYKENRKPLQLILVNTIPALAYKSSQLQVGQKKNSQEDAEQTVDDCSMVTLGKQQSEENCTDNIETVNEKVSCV
Protocol for D2 receptors: D2 receptors: A 2-nM solution of radioactive spiperone ([^3 H]spiperone), which acts as a specific ligand, was incubated with the membrane corresponding to 20 mg of rat striatum for 20 min at 35° C. buffered at pH 7.4 with Tris.HCl. The non-specific binding was then determined by addition of a micromolar concentration of unlabelled spiperone. […] After the incubation was completed, the sample was filtered through a glass fiber filter and then washed three times with Tris.HCl buffer. The amount of receptor-bound radioactivity was retained on the membrane and determined by liquid scintillation counting.

The term IC50 denotes the concentration needed to halve the response being measured. In the case of `O=c1c(CO)coc2cc(OCCCN3CCC(c4noc5cc(F)ccc45)CC3)ccc12` [Ex. 3, 7-[3-[4-(6-fluoro-1,2-benzisoxazole-3-yl)piperidin-1-yl]propoxy]-3-(hydroxymethyl)-chromen-4-one], the IC50 at 5HT2 receptors worked out at 4.71 nM; at 5HT1a receptors it was 152 nM; at D2 receptors it was 11.6 nM. Further, the results for the ED50 (in series [1] (po); in “in vivo”) were 0.25 mg/kg and 3.8 mg/kg, respectively. The selectivity ratio in the series “in vivo” was 15.2.

For the compound `O=c1ccoc2cc(OCCCN3CCC(c4noc5cc(F)ccc45)CC3)ccc12` [Ex. 1, 7-[3-[4-(6-fluoro-1,2-benzisoxazole-3-yl)piperidin-1-yl]propoxy]chromen-4-one], the concentration for half-maximal inhibition (IC50) came to 11.2 nM on 5HT2 receptors; 383 nM on 5HT1a receptors (setting [2]); 30 nM at D2 receptors (2 nM [3H]spiperone, rat striatum, 20 min, 35° C., pH 7.4, read-out: IC50 D2). Besides, the ED50 in series [1] (setting [3]) was 2.7 mg/kg; in the series “in vivo” it was 11.2 mg/kg. Further, the selectivity ratio in the series “in vivo” amounted to 4.17.

Consider `Cc1coc2cc(OCCCN3CCC(c4noc5cc(F)ccc45)CC3)ccc2c1=O` [Ex. 2, 7-[3-[4-(6-fluoro-1,2-benzisoxazole-3-yl)piperidin-1-yl]propoxy]-3-methyl-chromen-4-one], for which the IC50 at 5HT2 receptors came out at 11.3 nM; on 5HT1a receptors (setting [2]), 249 nM. The ED50 in series [1] (setting [3]) was 0.4 mg/kg; in “in vivo”, 2.9 mg/kg. In addition, the selectivity ratio in the series “in vivo” amounted to 7.25.
